# Assay results as given in patent US10000451B2, “MAP4K4 (HGK) inhibitors” (SRI INTERNATIONAL, priority 2015, dated 2018).
# Tests used:
# MAP4K4 = MAP4K4 (Homo sapiens, UniProt O95819); experiment: MAP4K4 kinase assay (in-house); assay type: biochemical
# From the text: Signaling pathways mediating anticancer activity. […] We established the MAP4K4 kinase assay in-house and confirmed that the compounds are indeed potent MAP4K4 inhibitors.
# A498 = experiment: Activity against cancer cell lines; assay type: cell-based; conditions: Homo sapiens
# From the text: (§1) Exemplary data is shown below.
# ACHN = experiment: Activity against cancer cell lines; assay type: cell-based; conditions: Homo sapiens
# From the text: as §1
# ADRRES = experiment: Activity against cancer cell lines; assay type: cell-based
# From the text: as §1
# CAKI1 = experiment: Activity against cancer cell lines; assay type: cell-based; conditions: Homo sapiens, CAKI-1
# From the text: as §1
# HCT15 = experiment: Activity against cancer cell lines; assay type: cell-based; conditions: Homo sapiens, HCT-15
# From the text: as §1
# HL60 = experiment: Activity against cancer cell lines; assay type: cell-based
# From the text: as §1
# LOXIMVI = experiment: Activity against cancer cell lines; assay type: cell-based; conditions: Homo sapiens, LOX IMVI
# From the text: as §1
# M14 = experiment: Activity against cancer cell lines; assay type: cell-based; conditions: Homo sapiens
# From the text: as §1
# MCF7 = experiment: Activity against cancer cell lines; assay type: cell-based; conditions: Homo sapiens
# From the text: as §1
# MDAMB435 = experiment: Activity against cancer cell lines; assay type: cell-based; conditions: Homo sapiens, MDA-MB-435
# From the text: as §1
# MOLT4 = experiment: Activity against cancer cell lines; assay type: cell-based; conditions: Homo sapiens, MOLT-4
# From the text: as §1
# NCIH522 = experiment: Activity against cancer cell lines; assay type: cell-based; conditions: Homo sapiens, NCI-H522
# From the text: as §1
# OVCAR4 = experiment: Activity against cancer cell lines; assay type: cell-based
# From the text: as §1
# RXF393 = experiment: Activity against cancer cell lines; assay type: cell-based; conditions: Homo sapiens, RXF 393
# From the text: as §1
# SF295 = experiment: Activity against cancer cell lines; assay type: cell-based; conditions: Homo sapiens, SF-295
# From the text: as §1
# SF539 = experiment: Activity against cancer cell lines; assay type: cell-based; conditions: Homo sapiens, SF-539
# From the text: as §1
# SKMEL2 = experiment: Activity against cancer cell lines; assay type: cell-based; conditions: Homo sapiens, SK-MEL-2
# From the text: as §1
# SKMEL5 = experiment: Activity against cancer cell lines; assay type: cell-based; conditions: Homo sapiens, SK-MEL-5
# From the text: as §1
# SNB75 = experiment: Activity against cancer cell lines; assay type: cell-based; conditions: Homo sapiens, SNB-75, SNB75
# From the text: as §1
# UO31 = experiment: Activity against cancer cell lines; assay type: cell-based; conditions: Homo sapiens, UO-31
# From the text: as §1
# BT549 = experiment: Breast cancer cell line growth inhibition; assay type: cell-based; conditions: Homo sapiens, BT-549; BT549, triple negative; read-out: IC50 against breast cancer cell lines
# From the text: (§2) Generally, their potency is positively correlated with MAP4K4 expression in cancer cell lines.
# HS578T = experiment: Breast cancer cell line growth inhibition; assay type: cell-based; conditions: Homo sapiens, Hs-578T, triple negative, read-out: IC50 against breast cancer cell lines
# From the text: as §2
# MCF-7 = experiment: Breast cancer cell line growth inhibition; assay type: cell-based; conditions: Homo sapiens, MCF7; MCF-7, ER (+); read-out: IC50 against breast cancer cell lines
# From the text: as §2
# MDA-MB-231 = experiment: Breast cancer cell line growth inhibition; assay type: cell-based; conditions: Homo sapiens; MDA-MB-231, triple negative; read-out: IC50 against breast cancer cell lines
# From the text: as §2
# T47D = experiment: Breast cancer cell line growth inhibition; assay type: cell-based; conditions: Homo sapiens, ER (+), read-out: IC50 against breast cancer cell lines
# From the text: as §2
# DU-145 = experiment: Prostate cancer cell proliferation assay; assay type: cell-based; conditions: Homo sapiens; DU-145, 72 hours; read-out: IC50 against prostate cancer cell lines
# From the text: (§3) The dose-response curves of cell growth inhibition were consistent.
# (§4) Cell proliferation assays.
# LNCaP = experiment: Prostate cancer cell proliferation assay; assay type: cell-based; conditions: Homo sapiens, 72 hours, read-out: IC50 against prostate cancer cell lines
# From the text: as §3, §4
# PC-3 = experiment: Prostate cancer cell proliferation assay; assay type: cell-based; conditions: Homo sapiens; PC-3, 72 hours; read-out: IC50 against prostate cancer cell lines
# From the text: as §3, §4
# [1] = tested on: PC-3 prostate cancer xenografts; experiment: Antitumor activity in PC-3 xenografts; assay type: in vivo; conditions: nude mice
# Protocol: In vivo efficacy studies: antitumor and antimetastatic effects against androgen-insensitive prostate cancer. Antitumor activity was tested in nude mice bearing aggressive, androgen-independent PC-3 prostate cancer xenografts. Docetaxel, a standard treatment for metastatic prostate cancer, was included in the study as a positive control. Docetaxel was administered at its maximum tolerated dose (MTD) via intraperitoneal (IP) (Q3Dx2; Monday, Friday). Mice were orally treated with compound in 0.5% HPC with 4 different treatment regimens. The control group was treated with vehicle (0.5% HPC) only. Treatment was initiated when average tumor volume reached 100 mm^3 (10 mice per group).
# The compounds show a significant dose-dependent growth inhibition of prostate tumor. Docetaxel at its MTD (7.5 mg/kg; Q3Dx2) produces only 10-15% growth inhibition. […] Treatment with representative compounds (12.5, 25 and 50 mg/kg/day) caused a significant dose-dependent growth reduction of PC-3 tumors.
# Chain of MAP4K4 (O95819 whole entry): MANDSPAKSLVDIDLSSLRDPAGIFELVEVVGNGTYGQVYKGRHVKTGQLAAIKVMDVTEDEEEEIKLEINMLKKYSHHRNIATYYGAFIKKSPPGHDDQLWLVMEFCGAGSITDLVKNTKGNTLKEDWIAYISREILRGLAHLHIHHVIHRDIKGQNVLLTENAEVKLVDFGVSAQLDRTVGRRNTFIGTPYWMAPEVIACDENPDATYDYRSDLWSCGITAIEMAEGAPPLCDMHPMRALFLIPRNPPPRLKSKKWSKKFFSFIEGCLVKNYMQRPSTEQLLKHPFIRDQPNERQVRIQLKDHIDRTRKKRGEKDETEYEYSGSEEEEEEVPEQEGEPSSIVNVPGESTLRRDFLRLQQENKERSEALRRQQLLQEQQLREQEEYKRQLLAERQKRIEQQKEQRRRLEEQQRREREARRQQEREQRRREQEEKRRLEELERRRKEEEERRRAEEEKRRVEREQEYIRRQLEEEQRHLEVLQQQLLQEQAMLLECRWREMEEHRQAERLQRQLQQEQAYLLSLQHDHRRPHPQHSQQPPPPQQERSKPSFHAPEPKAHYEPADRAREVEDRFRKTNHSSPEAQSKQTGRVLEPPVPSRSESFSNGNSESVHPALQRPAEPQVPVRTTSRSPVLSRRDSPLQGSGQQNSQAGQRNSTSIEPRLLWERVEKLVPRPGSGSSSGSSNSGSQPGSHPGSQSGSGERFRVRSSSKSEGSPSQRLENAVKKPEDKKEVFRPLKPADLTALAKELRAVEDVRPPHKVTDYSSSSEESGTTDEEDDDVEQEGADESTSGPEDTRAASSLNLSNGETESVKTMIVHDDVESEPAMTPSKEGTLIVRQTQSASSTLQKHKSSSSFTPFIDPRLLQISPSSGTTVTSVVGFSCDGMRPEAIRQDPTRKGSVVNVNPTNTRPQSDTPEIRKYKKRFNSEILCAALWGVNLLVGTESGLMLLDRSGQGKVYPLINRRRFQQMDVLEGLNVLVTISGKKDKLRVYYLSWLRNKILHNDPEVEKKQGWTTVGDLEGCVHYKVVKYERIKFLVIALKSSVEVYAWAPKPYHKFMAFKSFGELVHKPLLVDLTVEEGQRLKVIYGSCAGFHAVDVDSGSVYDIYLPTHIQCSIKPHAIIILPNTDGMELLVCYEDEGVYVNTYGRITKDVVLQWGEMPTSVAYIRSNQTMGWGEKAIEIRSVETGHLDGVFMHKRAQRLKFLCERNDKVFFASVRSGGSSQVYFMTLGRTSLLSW
smiles,measurement,setting,value
"COc1ccc2[nH]c(C(=O)c3ccc4[nH]nc(F)c4c3)cc2c1 [Cmpd 21, (3-fluoro-1H-indazol-5-yl)(5-methoxy-1H-indol-2-yl)methanone]",IC50,MAP4K4,100 nM
"COc1ccc2[nH]c(C(=O)c3ccc4[nH]nnc4c3)cc2c1 [Cmpd 36, (1H-benzo[d][1,2,3]triazol-5-yl)(5-methoxy-1H-indol-2-yl)methanone]",IC50,MAP4K4,570 nM
"COc1ccc2[nH]c(C(=O)c3ccc4[nH]ccc4c3)c(C)c2c1 [Cmpd 5, (1H-indol-5-yl)(5-methoxy-3-methyl-1H-indol-2-yl)methanone]",IC50,MAP4K4,300 nM
"COc1ccc2[nH]c(C(=NO)c3ccc4[nH]ccc4c3)cc2c1 [Cmpd 37, (1H-indol-5-yl)(5-methoxy-1H-indol-2-yl)methanone oxime]",IC50,A498,330 nM
same,IC50,ACHN,760 nM
same,IC50,ADRRES,64 nM
same,IC50,CAKI1,67 nM
same,IC50,HCT15,68 nM
same,IC50,HL60; HL60,78 nM
same,IC50,"HL60; Homo sapiens, HL-60, HL60",81 nM
same,IC50,LOXIMVI,440 nM
same,IC50,M14,110 nM
same,IC50,MCF7,85 nM
same,IC50,MDAMB435,66 nM
same,IC50,MOLT4,120 nM
same,IC50,NCIH522,100 nM
same,IC50,"OVCAR4; Homo sapiens, OVCAR-4, OVCAR4",150 nM
same,IC50,OVCAR4; OVCAR4,110 nM
same,IC50,RXF393,140 nM
same,IC50,SF295,250 nM
same,IC50,SF539,170 nM
same,IC50,SKMEL2,580 nM
same,IC50,SKMEL5,210 nM
same,IC50,SNB75,110 nM
same,IC50,UO31,690 nM
"COc1cc2cc(C(=O)c3ccc4[nH]nc(C)c4c3)[nH]c2cn1 [Cmpd 31, (5-methoxy-1H-pyrrolo[2,3-c]pyridin-2-yl)(3-methyl-1H-indazol-5-yl)methanone]",IC50,MAP4K4,13 nM
"COc1ccc2[nH]c(C(=O)c3ccc4[nH]ncc4c3)cc2c1 [Cmpd 17, (1H-indazol-5-yl)(5-methoxy-1H-indol-2-yl)methanone]",IC50,MAP4K4,260 nM
same,IC50,BT549,9 nM
same,IC50,HS578T,10 nM
same,IC50,MCF-7,53 nM
same,IC50,MDA-MB-231,10 nM
same,IC50,T47D,17 nM
same,IC50,DU-145,14 nM
same,IC50,LNCaP,9 nM
same,IC50,PC-3,6 nM
"COc1ccc2[nH]c(C(=O)c3ccc4[nH]nc(Cl)c4c3)cc2c1 [Cmpd 20, (3-chloro-1H-indazol-5-yl)(5-methoxy-1H-indol-2-yl)methanone]",IC50,MAP4K4,310 nM
"COc1ccc2[nH]c(C(=O)c3ccc4[nH]cc(Cl)c4c3)cc2c1 [Cmpd 9, (3-chloro-1H-indol-5-yl)(5-methoxy-1H-indol-2-yl)methanone]",IC50,MAP4K4,1700 nM
"COc1ccc2[nH]c(C(=O)c3ccc4[nH]ncc4c3)c(Cl)c2c1 [Cmpd 23, (3-chloro-5-methoxy-1H-indol-2-yl)(1H-indazol-5-yl)methanone]",IC50,MAP4K4,410 nM
same,IC50,BT549,23 nM
same,IC50,HS578T,29 nM
same,IC50,MCF-7,114 nM
same,IC50,MDA-MB-231,28 nM
same,IC50,T47D,44 nM
same,IC50,DU-145,53 nM
same,IC50,LNCaP,28 nM
same,IC50,PC-3,20 nM
"CCc1n[nH]c2ccc(C(=O)c3cc4cc(OC)ccc4[nH]3)cc12 [Cmpd 19, (3-ethyl-1H-indazol-5-yl)(5-methoxy-1H-indol-2-yl)methanone]",IC50,MAP4K4,9 nM
"COc1ccc2[nH]c(C(=O)c3ccc4[nH]c(C(F)(F)F)nc4c3)cc2c1 [Cmpd 35, (5-methoxy-1H-indol-2-yl)(2-(trifluoromethyl)-1H-benzo[d]imidazol-5-yl)methanone]",IC50,MAP4K4,7500 nM
"COc1ccc2[nH]c(C(=O)c3ccc4[nH]nc(CN5CCOCC5)c4c3)cc2c1 [Cmpd 22, (5-methoxy-1H-indol-2-yl)(3-(morpholinomethyl)-1H-indazol-5-yl)methanone]",IC50,MAP4K4,21000 nM
"CC(=O)O[C@@]12CO[C@@H]1C[C@H](O)[C@@]1(C)C(=O)[C@H](O)C3=C(C)[C@@H](OC(=O)[C@H](O)[C@@H](NC(=O)OC(C)(C)C)c4ccccc4)C[C@@](O)([C@@H](OC(=O)c4ccccc4)[C@H]21)C3(C)C [Docetaxel, reference compound]",IC50,DU-145,72 nM
same,IC50,LNCaP,31 nM
same,IC50,PC-3,95 nM
same,tumor growth inhibition,"[1]; PC-3 xenografts, MTD 7.5 mg/kg IP Q3Dx2",10-15%
same,lethal toxicity,"[1]; 7.5 mg/kg IP, after the 4th injection",mice died on Day 13 due to lethal toxicity
"CC(=O)O[C@H]1C(=O)[C@@]2(C)[C@H]([C@H](OC(=O)c3ccccc3)[C@]3(O)C[C@H](OC(=O)[C@H](O)[C@@H](NC(=O)c4ccccc4)c4ccccc4)C(C)=C1C3(C)C)[C@]1(OC(C)=O)CO[C@@H]1C[C@@H]2O [Paclitaxel, reference compound]",IC50,BT549,151 nM
same,IC50,HS578T,148 nM
same,IC50,MCF-7,156 nM
same,IC50,MDA-MB-231,153 nM
same,IC50,T47D,152 nM
"COc1ccc2[nH]c(C(=O)c3ccc4[nH]cc(C)c4c3)cc2c1 [Cmpd 4, (5-methoxy-1H-indol-2-yl)(3-methyl-1H-indol-5-yl)methanone]",IC50,MAP4K4,380 nM
"COc1cccc2cc(C(=O)c3ccc4[nH]nc(C)c4c3)[nH]c12 [Cmpd 28, (7-methoxy-1H-indol-2-yl)(3-methyl-1H-indazol-5-yl)methanone]",IC50,MAP4K4,650 nM
"Cc1c[nH]c2ccc(C(=O)c3cc4cc(O)ccc4[nH]3)cc12 [Cmpd 12, (5-hydroxy-1H-indol-2-yl)(3-methyl-1H-indol-5-yl)methanone]",IC50,MAP4K4,1000 nM
"COc1ccc2[nH]c(C(=O)c3ccc4[nH]ncc4c3)cc2c1Cl [Cmpd 24, (4-chloro-5-methoxy-1H-indol-2-yl)(1H-indazol-5-yl)methanone]",IC50,MAP4K4,12000 nM
"COc1ccc2[nH]c(C(=O)c3cnc4[nH]ccc4c3)cc2c1 [Cmpd 33, (5-methoxy-1H-indol-2-yl)(1H-pyrrolo[2,3-b]pyridin-5-yl)methanone]",IC50,MAP4K4,46 nM
"COc1cccc2[nH]c(C(=O)c3ccc4[nH]nc(C)c4c3)cc12 [Cmpd 29, (4-methoxy-1H-indol-2-yl)(3-methyl-1H-indazol-5-yl)methanone]",IC50,MAP4K4,650 nM
"COc1cc2cc(C(=O)c3ccc4[nH]ccc4c3)[nH]c2cc1OC [Cmpd 15, (5,6-dimethoxy-1H-indol-2-yl)(1H-indol-5-yl)methanone]",IC50,BT549,17 nM
same,IC50,HS578T,16 nM
same,IC50,MCF-7,123 nM
same,IC50,MDA-MB-231,21 nM
same,IC50,T47D,30 nM
same,IC50,DU-145,35 nM
same,IC50,LNCaP,21 nM
same,IC50,PC-3,17 nM
